Test results: patent US10759791B2, “Mammalian and bacterial nitric oxide synthase inhibitors” (Northwestern University, priority 2014, dated 2020)
Several values for one entry are separate records, joined by “and”; a condition that tells them apart may be missing. Equal values may be shown once. Marks after values point to notes of the source that are not given here.

What was measured:
[1] = 37° C.
CYP2B6 = CYP2B6 (Homo sapiens (Human), UniProt P20813); test: in vitro; settings: microsomes, pH 7.4
CYP2C8 = CYP2C8 (Homo sapiens (Human), UniProt P10632); test: in vitro; settings: microsomes, pH 7.4
CYP2C9 = CYP2C9 (Homo sapiens (Human), UniProt P11712); test: in vitro; settings: microsomes, pH 7.4
in vitro [2] = settings: human, microsomes, pH 7.4
in vitro [3] = settings: human, pH 7.4
CYP1A2 = CYP1A2 (Homo sapiens (Human), UniProt P05177); test: CYP inhibition assay, human liver microsomes; settings: human, microsomes, pH 7.4
CYP2D6 = CYP2D6 (Homo sapiens (Human), UniProt P10635); test: CYP inhibition assay, human liver microsomes; settings: pH 7.4
[4] = human, microsomes, 0 h, 1 μM, pH 7.4

Chain of CYP2C9 (P11712 whole entry): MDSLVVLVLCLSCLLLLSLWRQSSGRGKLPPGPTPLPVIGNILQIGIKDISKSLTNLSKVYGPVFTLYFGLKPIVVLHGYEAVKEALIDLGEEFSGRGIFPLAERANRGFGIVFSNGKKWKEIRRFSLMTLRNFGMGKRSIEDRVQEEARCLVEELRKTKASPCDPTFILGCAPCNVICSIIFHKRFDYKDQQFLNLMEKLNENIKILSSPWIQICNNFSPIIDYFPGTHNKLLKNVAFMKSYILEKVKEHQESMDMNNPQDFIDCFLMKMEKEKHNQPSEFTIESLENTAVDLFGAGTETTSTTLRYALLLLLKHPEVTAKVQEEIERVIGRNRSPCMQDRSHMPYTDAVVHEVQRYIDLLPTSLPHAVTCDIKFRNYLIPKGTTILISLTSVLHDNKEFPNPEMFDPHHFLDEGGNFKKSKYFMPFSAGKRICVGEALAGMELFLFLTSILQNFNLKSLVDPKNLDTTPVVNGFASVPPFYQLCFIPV
Chain of CYP2D6 (P10635 whole entry): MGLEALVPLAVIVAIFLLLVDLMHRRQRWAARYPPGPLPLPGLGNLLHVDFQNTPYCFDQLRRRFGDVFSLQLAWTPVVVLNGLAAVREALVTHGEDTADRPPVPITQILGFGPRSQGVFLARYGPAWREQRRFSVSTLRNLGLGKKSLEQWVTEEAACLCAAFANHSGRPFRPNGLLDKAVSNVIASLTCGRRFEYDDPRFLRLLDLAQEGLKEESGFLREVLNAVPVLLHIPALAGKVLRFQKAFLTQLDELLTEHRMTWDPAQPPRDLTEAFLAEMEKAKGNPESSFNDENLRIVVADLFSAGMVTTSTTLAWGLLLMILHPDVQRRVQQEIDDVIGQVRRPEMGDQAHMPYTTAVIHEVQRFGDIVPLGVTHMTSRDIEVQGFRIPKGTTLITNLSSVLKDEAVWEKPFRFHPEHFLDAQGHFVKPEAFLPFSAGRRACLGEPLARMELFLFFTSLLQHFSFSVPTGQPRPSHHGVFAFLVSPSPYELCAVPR
Chain of CYP1A2 (P05177 whole entry): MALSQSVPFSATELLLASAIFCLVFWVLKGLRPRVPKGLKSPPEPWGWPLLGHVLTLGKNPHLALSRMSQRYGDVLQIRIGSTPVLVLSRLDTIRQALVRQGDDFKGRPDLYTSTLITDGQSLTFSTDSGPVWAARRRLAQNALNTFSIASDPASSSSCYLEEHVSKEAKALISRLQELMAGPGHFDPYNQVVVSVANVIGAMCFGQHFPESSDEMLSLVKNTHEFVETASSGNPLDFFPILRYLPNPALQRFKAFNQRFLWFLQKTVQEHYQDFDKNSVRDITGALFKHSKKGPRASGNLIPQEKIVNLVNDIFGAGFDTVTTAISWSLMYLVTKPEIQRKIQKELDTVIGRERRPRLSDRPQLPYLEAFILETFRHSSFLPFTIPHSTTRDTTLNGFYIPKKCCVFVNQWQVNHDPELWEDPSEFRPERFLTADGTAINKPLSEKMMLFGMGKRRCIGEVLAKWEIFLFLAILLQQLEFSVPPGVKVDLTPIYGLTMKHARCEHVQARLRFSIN
Chain of CYP2C8 (P10632 whole entry): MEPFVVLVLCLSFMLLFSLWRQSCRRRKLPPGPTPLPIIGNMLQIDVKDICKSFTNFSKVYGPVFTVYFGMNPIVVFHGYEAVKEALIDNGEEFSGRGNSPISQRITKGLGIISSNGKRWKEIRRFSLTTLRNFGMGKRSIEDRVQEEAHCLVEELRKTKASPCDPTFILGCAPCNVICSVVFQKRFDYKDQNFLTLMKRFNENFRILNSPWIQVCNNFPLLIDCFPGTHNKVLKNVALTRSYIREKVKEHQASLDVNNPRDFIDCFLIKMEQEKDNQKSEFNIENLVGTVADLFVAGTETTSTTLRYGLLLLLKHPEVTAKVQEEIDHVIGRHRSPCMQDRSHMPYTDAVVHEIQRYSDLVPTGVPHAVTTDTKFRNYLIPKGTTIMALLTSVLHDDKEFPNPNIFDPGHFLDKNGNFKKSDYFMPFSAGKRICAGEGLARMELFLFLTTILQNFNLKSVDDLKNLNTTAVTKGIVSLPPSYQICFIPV

SMILES: CNCCCc1cncc(CCc2cc(C)cc(N)n2)c1 [Compound 14j, 4-Methyl-6-(2-(5-(3-(methylamino)propyl)pyridin-3-yl)ethyl)pyridin-2-amine]
- % Remaining, 90 minutes (−NADPH) (1 μM): 78^b % and 78%
- CLh, int (1 μM): 10.4 mL/min/kg
- % Remaining, 90 minutes (Buffer) (1 μM, heat inactivated microsomes minus NADPH): 95^b % and 95%
- % of the compound lost (1 μM, in 60 min in the absence of NADPH or in 90 min in the presence of NADPH): 23%
- Percentage in HLM, Minus NADPH, 0 min [4]: 100%
- Percentage in HLM, Plus NADPH, 0 min [4]: 100%
- Percentage in HLM, Plus NADPH, 45 min (human, microsomes, […], 1 μM, pH 7.4): 87%
- Percentage in HLM, Heat inactivated microsomes, 0 min (minus NADPH (buffer control)): 100%
- % compound remaining at 4 h [1]: 90%
- inhibition at 10 µM (CYP2B6): 8%
- inhibition at 10 µM (CYP2C8): 2%
- inhibition at 10 min, 10 µM (CYP2C9): 0%
- half-life at 1 μM (in vitro [2]): > 1 h
- recovery at 4 h, 5 μM (in vitro [3]): 91%
- inhibition at 10 min, 10 µM (CYP1A2): 9%
- inhibition at 10 min, 10 µM (CYP2D6): 6%
